The record followed here is ChEMBL document CHEMBL1201862, “PubChem BioAssay data set” (2004).

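Test compounds were applied to cells in 96-well plates for 48 hours at 5 doses. GI50 marks 50% less growth.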 Activity calls are given as the source filed them. Cut-off read from the data, not from the text of the source: active = GI50 up to about 1.1 µM and inactive = higher. Bounds are passed on as bounds.

Test systems include 786-0; EKVX; HL-60; HOP-62; HOP-92; HT-29; IGROV-1; K562; KM12; M14; NCI-H460; OVCAR-4; SK-MEL-2; SK-MEL-5; SN12C; TK-10; U-251; HCT-116; MDA-MB-231.
Assay in all cases: NCI tumour cell line growth inhibition, 48 h

As to `COc1ccc(-c2cc(O)c3cc4c(cc3n2)OCO4)c(OC)c1`, the GI50 was > 100 µM (inactive) in the experiment on 786-0; 82.4 µM (inactive) in the experiment on EKVX; 20 µM (inactive) in the experiment on HL-60; 73.1 µM (inactive) in the experiment on HOP-62; 82 µM (inactive) in the experiment on HOP-92; 43 µM (inactive) with HT-29. Moreover, the GI50 in the experiment on IGROV-1 is > 100 µM (inactive); with K562, 32 µM (inactive); with KM12, 41.6 µM (inactive); in the experiment with M14, 33.5 µM (inactive); in the experiment on NCI-H460, 40.2 µM (inactive); with OVCAR-4, 71.1 µM (inactive). Moreover, the GI50 in the experiment on SK-MEL-2 is 55.1 µM (inactive); with SK-MEL-5 it was 26.5 µM (inactive); with SN12C, 59.6 µM (inactive); with TK-10, > 100 µM (inactive); with U-251, 59.4 µM (inactive).

In the case of `CC(C)=CC1CCc2ccccc2N1S(=O)(=O)c1ccc(C)cc1` (centres undefined), the GI50 in the experiment on 786-0 was 2.35 µM (inactive); in the experiment with EKVX, 10.6 µM (inactive); in the experiment with HCT-116, 0.982 µM (active); with HL-60, 0.272 µM (active); with HOP-62, 2.57 µM (inactive); in the experiment on HOP-92, 0.433 µM (active). Moreover, the GI50 with HT-29 was 1.36 µM (inactive); in the experiment on IGROV-1 it was 2.4 µM (inactive); in the experiment on K562, 0.59 µM (active); in the experiment with KM12 it was 0.624 µM (active); in the experiment on M14, 1.27 µM (inactive); with NCI-H460, 1.36 µM (inactive). The GI50 with OVCAR-4 is 4.31 µM (inactive); in the experiment with SK-MEL-2 it was 1.79 µM (inactive); in the experiment on SK-MEL-5 it was 0.589 µM (active); in the experiment with SN12C, 2.99 µM (inactive); in the experiment on TK-10 it was 2.81 µM (inactive); in the experiment with U-251 it was 1.19 µM (inactive).

In the case of `N/N=C1/C(=O)N(c2ccc(Cl)cc2)C(=O)C(=O)C1c1nc2ccccc2s1` (centres undefined), the GI50 in the experiment with 786-0, in the experiment with EKVX, with HCT-116, in the experiment on HL-60, in the experiment on HOP-62 and in the experiment on HOP-92 was > 100 µM (inactive) in each case. Further, the GI50 in the experiment on HT-29 was > 100 µM (inactive); in the experiment on IGROV-1, > 100 µM (inactive); in the experiment with K562, 60.3 µM (inactive); in the experiment on KM12, > 100 µM (inactive); in the experiment on M14 it was > 100 µM (inactive); with NCI-H460, > 100 µM (inactive). The GI50 with OVCAR-4, with SK-MEL-2, with SK-MEL-5, with SN12C, in the experiment on TK-10 and in the experiment with U-251 was > 100 µM (inactive) each time.

Take `CC1NOC(=O)C1/N=N/c1ccccc1Br` (centres undefined): the GI50 is 17.5 µM (inactive) in the experiment on 786-0; 34.2 µM (inactive) in the experiment with EKVX; 32.5 µM (inactive) in the experiment on HCT-116; 18.9 µM (inactive) with HL-60; 43.9 µM (inactive) with HOP-62; 24 µM (inactive) in the experiment on HOP-92. The GI50 with HT-29 was 39.6 µM (inactive); in the experiment with IGROV-1, 36 µM (inactive); with K562, 22.9 µM (inactive); in the experiment with KM12, 21.2 µM (inactive); with M14, 21.4 µM (inactive); in the experiment with NCI-H460, 21.7 µM (inactive). The GI50 was 39.3 µM (inactive) in the experiment on OVCAR-4; 16.2 µM (inactive) in the experiment with SK-MEL-2; 15.3 µM (inactive) with SK-MEL-5; 24.5 µM (inactive) with SN12C; 24.5 µM (inactive) with TK-10; 22.4 µM (inactive) in the experiment on U-251.

Turning to `COC(=O)CCc1cccnc1/C=N/O`, the GI50 in the experiment on 786-0, in the experiment on EKVX, in the experiment with HCT-116, with HL-60, in the experiment with HOP-62 and in the experiment with HOP-92 was > 100 µM (inactive) throughout. Moreover, the GI50 is > 100 µM (inactive) in the experiment on HT-29; > 100 µM (inactive) with IGROV-1; > 100 µM (inactive) in the experiment on K562; > 100 µM (inactive) with KM12; > 100 µM (inactive) in the experiment on M14; 27.4 µM (inactive) in the experiment with NCI-H460. The GI50 in the experiment with OVCAR-4 was > 100 µM (inactive); with SK-MEL-2, > 100 µM (inactive); in the experiment on SK-MEL-5, > 100 µM (inactive); in the experiment with SN12C it was > 100 µM (inactive); in the experiment on TK-10, 55.7 µM (inactive); with U-251, > 100 µM (inactive).

`CC(=O)NC1C(OCc2ccccc2)OC(COC(=O)CCCCCCCCCCNC(=O)CCNc2ccc([N+](=O)[O-])c3[nH]c4ccc(O)cc4c(=O)c23)C(O)C1OC(C)C(=O)N[C@H](C(=O)N[C@H](CCC(=O)O)C(N)=O)C(C)C` (some centres undefined): the GI50 was 76 µM (inactive) in the experiment on 786-0; 96.8 µM (inactive) with EKVX; 53.7 µM (inactive) with HCT-116; 63.4 µM (inactive) in the experiment with HL-60; > 100 µM (inactive) with HOP-62; 28.7 µM (inactive) with HOP-92. For the same compound, the GI50 with HT-29 is 56.2 µM (inactive); with IGROV-1, > 100 µM (inactive); in the experiment on K562 it was 76.9 µM (inactive); in the experiment on KM12, 63.4 µM (inactive); with M14 it was 48.5 µM (inactive); in the experiment on NCI-H460, > 100 µM (inactive). The GI50 with OVCAR-4 was 35.4 µM (inactive); with SK-MEL-2 it was 28.8 µM (inactive); in the experiment on SK-MEL-5, > 100 µM (inactive); with SN12C, 64 µM (inactive); with TK-10, > 100 µM (inactive); with U-251, 44.4 µM (inactive).

Take `COc1ccc(-n2c(-c3ccccc3)cc(-c3cccs3)c2-c2cccs2)cc1`: the GI50 in the experiment on 786-0, in the experiment with EKVX, with HCT-116, in the experiment with HOP-62, in the experiment on HOP-92 and with HT-29 was > 100 µM (inactive) in each case. Also, the GI50 was > 100 µM (inactive) in the experiment on IGROV-1; > 100 µM (inactive) in the experiment with KM12; > 100 µM (inactive) with M14; 10.1 µM (inactive) in the experiment on MDA-MB-231; > 100 µM (inactive) with NCI-H460; 56.6 µM (inactive) in the experiment on OVCAR-4. Moreover, the GI50 in the experiment on SK-MEL-5, in the experiment on SN12C, in the experiment on TK-10 and in the experiment with U-251 was > 100 µM (inactive) throughout.

`CC(=O)NNc1nc(C)c(C(=O)NNC(=O)C(=O)Nc2ccc(C)c(C)c2)s1`: the GI50 is > 100 µM (inactive) in the experiment with 786-0; > 100 µM (inactive) in the experiment with EKVX; > 100 µM (inactive) in the experiment with HCT-116; 70.8 µM (inactive) in the experiment with HL-60; > 100 µM (inactive) in the experiment with HOP-62; > 100 µM (inactive) in the experiment with HOP-92. Moreover, the GI50 in the experiment on HT-29 is > 100 µM (inactive); in the experiment with IGROV-1 it was > 100 µM (inactive); in the experiment on K562, 52.6 µM (inactive); in the experiment with KM12, 42.5 µM (inactive); in the experiment with M14, > 100 µM (inactive); with NCI-H460, 95.3 µM (inactive). Also, the GI50 with OVCAR-4 is 72.9 µM (inactive); with SK-MEL-2 it was > 100 µM (inactive); in the experiment with SK-MEL-5, > 100 µM (inactive); with SN12C, > 100 µM (inactive); with TK-10, > 100 µM (inactive); in the experiment on U-251 it was 96.4 µM (inactive).

As for `COC(=O)C1=C(C)N(NC(N)=O)C(C)(O)C12CCOC2=O` (centres undefined), the GI50 in the experiment with 786-0, with EKVX, with HCT-116, in the experiment on HL-60, in the experiment with HOP-62 and in the experiment on HOP-92 was > 100 µM (inactive) each time. The GI50 in the experiment on HT-29, in the experiment with IGROV-1, with K562, in the experiment with KM12, with M14 and in the experiment on NCI-H460 was > 100 µM (inactive) in each case. Further, the GI50 in the experiment on OVCAR-4, in the experiment with SK-MEL-2, in the experiment with SN12C, with TK-10 and in the experiment on U-251 was > 100 µM (inactive) throughout.

Take `COc1ccccc1NC(=O)C1=C(C)NC(C)=C(C(=O)Nc2ccccc2OC)C1c1ccccc1F`: the GI50 in the experiment with 786-0 is > 100 µM (inactive); in the experiment on EKVX, 50.2 µM (inactive); with HCT-116 it was 59 µM (inactive); in the experiment with HL-60, 46.2 µM (inactive); in the experiment with HOP-62 it was > 100 µM (inactive); in the experiment with HOP-92 it was 79.3 µM (inactive). The GI50 was 91.4 µM (inactive) in the experiment on HT-29; > 100 µM (inactive) in the experiment with IGROV-1; 36.2 µM (inactive) in the experiment on K562; 66.7 µM (inactive) in the experiment with KM12; > 100 µM (inactive) with M14; 67.9 µM (inactive) in the experiment with NCI-H460. The GI50 in the experiment with OVCAR-4 was > 100 µM (inactive); in the experiment with SK-MEL-2 it was 55.8 µM (inactive); in the experiment on SK-MEL-5, 41.6 µM (inactive); in the experiment on SN12C, > 100 µM (inactive); in the experiment on TK-10 it was > 100 µM (inactive); in the experiment with U-251 it was 90.8 µM (inactive).

Take `[O-][S+]1c2ccc(Cl)cc2CC(SSC2Cc3cc(Cl)ccc3[S+]([O-])c3ccccc32)c2ccccc21` (centres undefined): the GI50 in the experiment with 786-0, with EKVX, in the experiment on HCT-116, in the experiment on HL-60, in the experiment on HOP-62 and in the experiment on HOP-92 was > 100 µM (inactive) in each case. The GI50 in the experiment on HT-29, with IGROV-1, with K562, in the experiment on KM12, with M14 and in the experiment with NCI-H460 was > 100 µM (inactive) each time. Moreover, the GI50 in the experiment on OVCAR-4, with SK-MEL-2, in the experiment on SK-MEL-5, in the experiment with SN12C, in the experiment with TK-10 and in the experiment on U-251 was > 100 µM (inactive) each time.
